Calls of active or inactive are those of the source.
How the values were obtained:
Caspase-3 = molecular target: T1, Caspase-3 (Homo sapiens, UniProt P42574); format: functional;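 further: Dose-response selectivity test against caspase-3 for candidate inhibitors of sentrin-specific proteases (SENPs)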
T1 sequence (P42574 whole entry): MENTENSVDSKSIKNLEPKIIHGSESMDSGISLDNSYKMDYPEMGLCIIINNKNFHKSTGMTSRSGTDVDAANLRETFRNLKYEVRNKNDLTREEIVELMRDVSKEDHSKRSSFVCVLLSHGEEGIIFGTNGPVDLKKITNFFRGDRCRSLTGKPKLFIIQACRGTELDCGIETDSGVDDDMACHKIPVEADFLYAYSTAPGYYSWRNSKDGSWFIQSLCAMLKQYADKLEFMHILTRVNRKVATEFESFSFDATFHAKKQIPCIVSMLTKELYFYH

[1] = molecular target: T2, Sentrin-specific protease 7 (Homo sapiens, UniProt Q9BQF6); format: functional;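 further: Luminescence-based dose-response confirmation of ultra-high-throughput screening hits, measuring inhibition of SENP7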
T2 sequence (Q9BQF6 whole entry): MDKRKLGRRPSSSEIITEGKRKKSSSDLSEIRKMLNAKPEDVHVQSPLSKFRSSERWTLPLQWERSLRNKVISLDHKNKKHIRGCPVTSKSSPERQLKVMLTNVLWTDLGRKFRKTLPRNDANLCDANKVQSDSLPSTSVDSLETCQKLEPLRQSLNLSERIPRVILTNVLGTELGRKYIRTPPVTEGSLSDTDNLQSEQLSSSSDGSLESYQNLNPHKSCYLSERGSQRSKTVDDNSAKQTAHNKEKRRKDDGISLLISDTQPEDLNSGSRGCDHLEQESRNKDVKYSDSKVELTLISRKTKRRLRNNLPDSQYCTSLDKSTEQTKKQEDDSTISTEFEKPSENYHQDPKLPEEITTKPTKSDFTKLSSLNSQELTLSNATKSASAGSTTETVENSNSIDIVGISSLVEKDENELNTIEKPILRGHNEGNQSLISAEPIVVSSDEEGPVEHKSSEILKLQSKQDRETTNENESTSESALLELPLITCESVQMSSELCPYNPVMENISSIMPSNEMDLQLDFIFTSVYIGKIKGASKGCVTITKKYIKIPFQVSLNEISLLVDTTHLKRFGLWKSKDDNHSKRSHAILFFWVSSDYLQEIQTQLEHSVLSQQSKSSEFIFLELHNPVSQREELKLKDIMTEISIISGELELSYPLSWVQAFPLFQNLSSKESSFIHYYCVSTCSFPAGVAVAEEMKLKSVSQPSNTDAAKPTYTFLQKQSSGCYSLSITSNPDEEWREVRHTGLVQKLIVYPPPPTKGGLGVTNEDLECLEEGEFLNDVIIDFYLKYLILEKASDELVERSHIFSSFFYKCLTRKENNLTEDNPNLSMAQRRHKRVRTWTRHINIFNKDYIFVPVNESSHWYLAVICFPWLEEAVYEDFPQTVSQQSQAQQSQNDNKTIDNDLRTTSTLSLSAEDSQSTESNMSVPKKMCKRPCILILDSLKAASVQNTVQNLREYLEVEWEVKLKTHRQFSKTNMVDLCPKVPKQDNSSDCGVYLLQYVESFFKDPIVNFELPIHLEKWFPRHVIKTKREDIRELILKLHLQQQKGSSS

[2] = molecular target: T3, Sentrin-specific protease 6 (Homo sapiens, UniProt Q9GZR1); format: functional;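 further: Luminescence-based dose-response confirmatory assay of SENP6 inhibition, following up an ultra-high-throughput screen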
T3 sequence (Q9GZR1 whole entry): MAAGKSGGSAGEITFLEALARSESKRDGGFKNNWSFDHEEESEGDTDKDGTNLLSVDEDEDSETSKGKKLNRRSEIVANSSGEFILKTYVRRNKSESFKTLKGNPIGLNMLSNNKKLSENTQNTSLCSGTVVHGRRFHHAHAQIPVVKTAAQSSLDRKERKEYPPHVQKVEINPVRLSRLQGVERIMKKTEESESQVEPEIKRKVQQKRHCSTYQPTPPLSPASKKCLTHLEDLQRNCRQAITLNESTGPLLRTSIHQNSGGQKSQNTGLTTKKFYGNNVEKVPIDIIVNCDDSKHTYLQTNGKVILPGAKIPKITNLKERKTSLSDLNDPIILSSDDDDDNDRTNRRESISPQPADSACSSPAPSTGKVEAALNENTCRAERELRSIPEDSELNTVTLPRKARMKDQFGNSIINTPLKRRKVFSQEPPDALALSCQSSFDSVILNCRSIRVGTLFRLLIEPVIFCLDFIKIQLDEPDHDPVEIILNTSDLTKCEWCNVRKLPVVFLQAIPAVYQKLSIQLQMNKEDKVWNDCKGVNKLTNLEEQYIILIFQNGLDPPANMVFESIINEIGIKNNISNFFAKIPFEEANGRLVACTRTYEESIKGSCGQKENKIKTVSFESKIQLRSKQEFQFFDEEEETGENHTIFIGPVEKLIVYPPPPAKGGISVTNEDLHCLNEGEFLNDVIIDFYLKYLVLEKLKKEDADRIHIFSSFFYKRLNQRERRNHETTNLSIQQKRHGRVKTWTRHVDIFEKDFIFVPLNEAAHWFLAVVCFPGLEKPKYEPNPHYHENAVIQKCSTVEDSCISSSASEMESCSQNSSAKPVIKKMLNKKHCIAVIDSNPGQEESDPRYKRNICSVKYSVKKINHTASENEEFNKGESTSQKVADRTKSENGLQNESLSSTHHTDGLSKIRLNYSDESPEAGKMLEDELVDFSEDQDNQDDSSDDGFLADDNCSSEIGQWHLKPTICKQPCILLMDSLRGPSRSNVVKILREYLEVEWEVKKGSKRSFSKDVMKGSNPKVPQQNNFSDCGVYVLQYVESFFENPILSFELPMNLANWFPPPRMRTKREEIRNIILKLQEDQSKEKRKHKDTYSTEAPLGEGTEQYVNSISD

[3] = molecular target: T4, Sentrin-specific protease 8 (Homo sapiens, UniProt Q96LD8); format: functional;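 further: luminescence read-out of SENP8 inhibition, dose-response confirmation following an ultra-high-throughput screen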
T4 sequence (Q96LD8 whole entry): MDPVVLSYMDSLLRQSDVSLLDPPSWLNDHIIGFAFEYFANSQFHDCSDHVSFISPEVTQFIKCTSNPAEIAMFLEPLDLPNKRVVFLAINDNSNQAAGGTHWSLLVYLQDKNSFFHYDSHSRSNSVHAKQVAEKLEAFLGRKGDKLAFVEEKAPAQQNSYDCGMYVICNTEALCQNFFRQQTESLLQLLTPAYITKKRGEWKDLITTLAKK

[4] = Luminescence-based cell-based high throughput dose response assay to identify activators of the DAF-12 from the parasite S. stercoralis (ssDAF-12).; format: functional
[5] = molecular target: T5, Oxysterols receptor LXR-beta (Homo sapiens, UniProt P55055); assay: LXR agonists, Gal4 luciferase reporter, dose response, counter-screen for ssDAF-12 agonist project, cell-based, luminescence, HEK293, S. stercoralis campaign (AID 720737); format: functional; conditions: read-out: IC50 (the source's name)
T5 sequence (P55055 whole entry): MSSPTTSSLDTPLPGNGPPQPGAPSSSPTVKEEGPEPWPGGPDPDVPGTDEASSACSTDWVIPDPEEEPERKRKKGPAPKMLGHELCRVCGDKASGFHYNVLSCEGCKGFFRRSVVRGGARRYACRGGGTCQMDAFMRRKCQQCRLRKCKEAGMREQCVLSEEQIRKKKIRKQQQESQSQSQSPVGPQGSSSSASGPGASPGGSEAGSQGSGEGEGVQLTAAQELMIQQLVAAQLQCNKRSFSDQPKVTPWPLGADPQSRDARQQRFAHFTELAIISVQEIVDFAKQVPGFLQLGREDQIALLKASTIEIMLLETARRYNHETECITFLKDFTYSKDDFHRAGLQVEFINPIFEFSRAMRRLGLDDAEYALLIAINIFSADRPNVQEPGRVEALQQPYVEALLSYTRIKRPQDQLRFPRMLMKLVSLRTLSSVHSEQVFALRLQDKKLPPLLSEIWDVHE

[6] = molecular target: T5, Oxysterols receptor LXR-beta; format: functional, cell-based
[7] = molecular target: T6, Mitochondrial peptide methionine sulfoxide reductase (Bos taurus, UniProt P54149); assay: Absorbance-based biochemical high throughput dose response assay for activators of Methionine sulfoxide reductase A (MsrA).; format: functional
T6 sequence (P54149 whole entry): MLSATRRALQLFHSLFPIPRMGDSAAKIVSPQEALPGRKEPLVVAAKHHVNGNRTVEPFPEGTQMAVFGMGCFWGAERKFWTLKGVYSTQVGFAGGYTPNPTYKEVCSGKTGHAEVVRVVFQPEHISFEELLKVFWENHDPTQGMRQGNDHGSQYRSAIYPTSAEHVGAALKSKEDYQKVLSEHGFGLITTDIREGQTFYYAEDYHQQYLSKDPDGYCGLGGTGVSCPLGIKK

Caspase-6 = molecular target: T7, Caspase-6 (Homo sapiens, UniProt P55212); assay: human caspase-6 inhibitors, dose response, biochemical, VEID-R110 fluorescence, cherry-pick (AID 720632)
T7 sequence (P55212 whole entry): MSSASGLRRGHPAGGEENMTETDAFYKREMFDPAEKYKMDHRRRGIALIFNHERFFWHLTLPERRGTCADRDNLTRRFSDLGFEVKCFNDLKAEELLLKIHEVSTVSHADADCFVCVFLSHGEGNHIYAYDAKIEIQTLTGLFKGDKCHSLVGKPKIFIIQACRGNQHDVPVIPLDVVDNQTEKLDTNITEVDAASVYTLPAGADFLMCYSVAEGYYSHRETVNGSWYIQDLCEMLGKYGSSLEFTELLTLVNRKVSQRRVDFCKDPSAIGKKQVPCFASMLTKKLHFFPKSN

Caspase-9 = Caspase-9 (Homo sapiens, UniProt P55211); assay: caspase-9 enzyme inhibition, dose response, selectivity assay for caspase-6 inhibitor project, biochemical, fluorescence, plate reader, cherry-picked samples (AID 743293)
[8] = molecular target: Tyrosyl-DNA phosphodiesterase 2 (Homo sapiens, UniProt O95551); assay: human TDP2 enzyme inhibitors, dose response, biochemical, epi absorbance, IC50 (AID 743297)
Caspase-8 = Caspase-8 (Homo sapiens, UniProt Q14790); assay: caspase-8 inhibition counter-screen, dose response, selectivity assay for caspase-6 inhibitor project, biochemical, Z-IETD-R110 fluorescence, cherry-picked samples (AID 743294)
Nonstructural protein 1 = Nonstructural protein 1 (Influenza A virus, UniProt Q194T2); format: functional, Influenza A virus (A/California/07/2009(H1N1))
[9] = HEK293T cell cytotoxicity, dose response, cytotoxicity control, CellTiter-Glo luminescence, dry powder, set 2 (AID 720595); format: functional, cell-based; conditions: HEK293
HEK293 = assay: HEK293T cell cytotoxicity, dose response, cytotoxicity control, ATP luminescence, cherry-pick samples (AID 687005); format: functional, cell-based; conditions: Homo sapiens;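 further: cells exposed to compound for 48 hours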
[10] = HEK293 Cytotoxicity Assay Measured in Cell-Based System Using Plate Reader - 7071-01_Inhibitor_Dose_CherryPick_Activity_Set2.; format: functional
[11] = molecular target: Muscarinic acetylcholine receptor M5 (Rattus norvegicus, UniProt P08911); assay: Discovery of Selective Novel Positive Allosteric Modulators (PAM) of the Muscarinic Receptor (M5) in CHO cells expressing Rattus Norvegicus M5 receptor.; format: functional, cell-based
[12] = molecular target: T8, Muscarinic acetylcholine receptor M5 (Homo sapiens, UniProt P08912); assay: M5 positive allosteric modulator fold shift, mechanism study, cell-based, calcium fluorescence (AID 651776); format: functional
[13] = molecular target: T8, Muscarinic acetylcholine receptor M5; assay: M5 receptor positive allosteric modulators, dose response, cell-based, concentration-response curve (AID 651878); format: functional
[14] = molecular target: Potassium channel subfamily K member 9 (Homo sapiens, UniProt Q9NPC2); assay: TASK3 (KCNK9) channel inhibitors, thallium flux, SAR follow-up, selectivity assay for TASK1 inhibitor project, cell-based, FluxOR thallium flux, concentration-response (AID 652211); format: functional;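 further: potency is for inhibitors of the channel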
[15] = molecular target: Potassium channel subfamily K member 3 (Homo sapiens, UniProt O14649); assay: TASK1 (KCNK3) potassium channel inhibitors, SAR follow-up, CHO cells, FluxOR thallium flux (AID 652212); format: functional
[16] = Late stage assay provider results from the probe development effort to identify selective inhibitors of heat shock protein 90 (HSP90): Absorbance-based cell proliferation assay in SKBR3 cells.; format: functional; conditions: SK-BR-3
[17] = Late stage assay provider results from the probe development effort to identify selective inhibitors of heat shock protein 90 (HSP90): Absorbance-based cell proliferation assay in MCF7 cells.; format: functional
Phospholipase D2 = Phospholipase D2 (Homo sapiens, UniProt O14939); assay: PLD2 Cellular Concentration Response Study.; format: functional
Phospholipase D1 = Phospholipase D1 (Homo sapiens, UniProt Q13393); assay: PLD1 Cellular Concentration Response Study.; format: functional
Chain of Phospholipase D1 (Q13393 whole entry): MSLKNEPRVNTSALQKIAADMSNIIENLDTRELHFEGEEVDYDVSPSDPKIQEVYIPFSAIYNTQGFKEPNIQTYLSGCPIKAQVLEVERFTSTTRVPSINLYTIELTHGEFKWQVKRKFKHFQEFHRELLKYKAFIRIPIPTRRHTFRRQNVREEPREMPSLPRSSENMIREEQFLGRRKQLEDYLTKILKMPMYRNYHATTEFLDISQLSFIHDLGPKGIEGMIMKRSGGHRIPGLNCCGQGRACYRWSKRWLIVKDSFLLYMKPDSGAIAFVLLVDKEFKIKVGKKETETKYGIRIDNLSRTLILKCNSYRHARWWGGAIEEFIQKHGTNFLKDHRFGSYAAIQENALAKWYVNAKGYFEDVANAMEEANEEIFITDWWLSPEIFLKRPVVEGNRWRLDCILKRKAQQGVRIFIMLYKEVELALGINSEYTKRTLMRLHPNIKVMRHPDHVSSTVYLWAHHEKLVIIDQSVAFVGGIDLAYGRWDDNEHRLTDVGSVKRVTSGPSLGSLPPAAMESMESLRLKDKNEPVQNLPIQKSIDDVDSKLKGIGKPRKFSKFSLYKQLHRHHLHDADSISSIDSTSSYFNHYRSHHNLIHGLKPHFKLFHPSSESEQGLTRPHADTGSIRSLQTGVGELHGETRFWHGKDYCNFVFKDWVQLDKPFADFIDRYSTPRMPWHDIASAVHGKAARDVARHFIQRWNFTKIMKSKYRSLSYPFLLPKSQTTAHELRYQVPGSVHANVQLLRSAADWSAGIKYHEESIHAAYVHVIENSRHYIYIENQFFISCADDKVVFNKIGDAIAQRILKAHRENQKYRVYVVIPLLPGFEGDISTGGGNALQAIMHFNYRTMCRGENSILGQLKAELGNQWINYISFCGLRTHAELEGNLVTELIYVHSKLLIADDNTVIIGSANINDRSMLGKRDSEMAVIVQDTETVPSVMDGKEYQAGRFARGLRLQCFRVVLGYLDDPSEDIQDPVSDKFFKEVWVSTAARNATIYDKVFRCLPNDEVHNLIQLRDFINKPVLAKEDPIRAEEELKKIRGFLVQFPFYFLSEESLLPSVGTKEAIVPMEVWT

T8 sequence (P08912 whole entry): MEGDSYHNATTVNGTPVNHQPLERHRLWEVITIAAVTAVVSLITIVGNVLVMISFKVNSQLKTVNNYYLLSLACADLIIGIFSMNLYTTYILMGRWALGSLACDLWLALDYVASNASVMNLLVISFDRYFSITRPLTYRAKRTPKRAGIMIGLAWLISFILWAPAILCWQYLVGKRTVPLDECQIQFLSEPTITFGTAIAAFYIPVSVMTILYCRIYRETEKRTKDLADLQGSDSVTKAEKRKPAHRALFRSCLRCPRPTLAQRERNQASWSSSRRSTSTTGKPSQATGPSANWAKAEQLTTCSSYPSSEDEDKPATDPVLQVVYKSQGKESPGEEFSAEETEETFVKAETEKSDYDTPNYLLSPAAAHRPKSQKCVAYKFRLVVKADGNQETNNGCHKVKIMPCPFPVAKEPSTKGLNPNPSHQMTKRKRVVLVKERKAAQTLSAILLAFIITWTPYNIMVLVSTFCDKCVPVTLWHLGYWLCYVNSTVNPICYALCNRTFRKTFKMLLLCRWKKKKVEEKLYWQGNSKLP
Chain of Muscarinic acetylcholine receptor M5 (Rattus norvegicus, UniProt P08911) (P08911 whole entry): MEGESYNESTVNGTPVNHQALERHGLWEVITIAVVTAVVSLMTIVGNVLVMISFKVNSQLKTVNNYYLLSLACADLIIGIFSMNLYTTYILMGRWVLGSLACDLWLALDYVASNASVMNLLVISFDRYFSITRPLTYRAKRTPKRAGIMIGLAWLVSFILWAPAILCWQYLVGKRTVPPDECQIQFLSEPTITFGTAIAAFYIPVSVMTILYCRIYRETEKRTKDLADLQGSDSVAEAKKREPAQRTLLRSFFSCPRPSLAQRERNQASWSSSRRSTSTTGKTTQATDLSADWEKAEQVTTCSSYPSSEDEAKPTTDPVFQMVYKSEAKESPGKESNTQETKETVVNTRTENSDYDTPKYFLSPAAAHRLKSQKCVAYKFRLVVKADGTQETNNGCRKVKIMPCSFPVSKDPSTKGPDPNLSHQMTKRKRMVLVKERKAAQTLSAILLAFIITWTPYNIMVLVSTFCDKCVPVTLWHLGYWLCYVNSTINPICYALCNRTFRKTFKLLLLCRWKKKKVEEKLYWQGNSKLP
Chain of Nonstructural protein 1 (Q194T2 whole entry): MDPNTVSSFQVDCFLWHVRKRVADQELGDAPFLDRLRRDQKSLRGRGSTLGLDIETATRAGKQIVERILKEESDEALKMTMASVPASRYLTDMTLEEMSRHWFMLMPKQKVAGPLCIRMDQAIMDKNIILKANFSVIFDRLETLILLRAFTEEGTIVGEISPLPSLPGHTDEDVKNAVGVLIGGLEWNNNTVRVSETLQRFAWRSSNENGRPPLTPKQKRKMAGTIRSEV
Chain of Phospholipase D2 (O14939 whole entry): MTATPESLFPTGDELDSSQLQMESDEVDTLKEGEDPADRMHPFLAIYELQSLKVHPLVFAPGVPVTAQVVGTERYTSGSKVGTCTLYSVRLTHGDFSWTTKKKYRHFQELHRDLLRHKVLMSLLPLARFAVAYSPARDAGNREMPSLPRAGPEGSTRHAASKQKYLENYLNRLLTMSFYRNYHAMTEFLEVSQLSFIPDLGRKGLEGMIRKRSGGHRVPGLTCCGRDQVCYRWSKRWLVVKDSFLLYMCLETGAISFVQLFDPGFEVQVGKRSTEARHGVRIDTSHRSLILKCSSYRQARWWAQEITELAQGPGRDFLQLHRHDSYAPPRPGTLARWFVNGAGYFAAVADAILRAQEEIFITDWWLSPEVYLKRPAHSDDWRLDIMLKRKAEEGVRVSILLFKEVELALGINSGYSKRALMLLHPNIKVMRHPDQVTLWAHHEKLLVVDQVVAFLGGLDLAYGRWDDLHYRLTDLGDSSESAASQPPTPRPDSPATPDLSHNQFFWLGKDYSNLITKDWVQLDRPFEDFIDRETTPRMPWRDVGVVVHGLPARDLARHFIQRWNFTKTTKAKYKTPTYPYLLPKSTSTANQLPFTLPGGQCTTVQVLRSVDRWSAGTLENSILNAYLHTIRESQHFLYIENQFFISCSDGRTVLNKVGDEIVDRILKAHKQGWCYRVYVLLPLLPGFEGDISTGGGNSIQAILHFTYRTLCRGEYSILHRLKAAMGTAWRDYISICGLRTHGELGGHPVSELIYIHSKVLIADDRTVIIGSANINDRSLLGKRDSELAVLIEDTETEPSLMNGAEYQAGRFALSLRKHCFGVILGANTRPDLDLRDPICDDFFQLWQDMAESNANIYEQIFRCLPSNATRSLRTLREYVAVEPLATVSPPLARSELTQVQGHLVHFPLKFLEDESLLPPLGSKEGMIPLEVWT
Chain of Tyrosyl-DNA phosphodiesterase 2 (O95551 whole entry): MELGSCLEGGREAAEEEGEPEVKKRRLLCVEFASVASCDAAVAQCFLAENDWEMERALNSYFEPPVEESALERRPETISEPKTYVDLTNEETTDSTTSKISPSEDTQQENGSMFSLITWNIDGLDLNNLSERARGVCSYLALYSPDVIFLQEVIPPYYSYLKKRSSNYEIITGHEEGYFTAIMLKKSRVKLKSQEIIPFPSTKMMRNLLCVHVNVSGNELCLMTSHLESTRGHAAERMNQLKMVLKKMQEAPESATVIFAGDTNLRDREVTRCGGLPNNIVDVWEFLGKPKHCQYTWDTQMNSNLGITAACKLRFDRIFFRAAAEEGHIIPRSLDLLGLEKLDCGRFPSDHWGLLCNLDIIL
Chain of Potassium channel subfamily K member 3 (O14649 whole entry): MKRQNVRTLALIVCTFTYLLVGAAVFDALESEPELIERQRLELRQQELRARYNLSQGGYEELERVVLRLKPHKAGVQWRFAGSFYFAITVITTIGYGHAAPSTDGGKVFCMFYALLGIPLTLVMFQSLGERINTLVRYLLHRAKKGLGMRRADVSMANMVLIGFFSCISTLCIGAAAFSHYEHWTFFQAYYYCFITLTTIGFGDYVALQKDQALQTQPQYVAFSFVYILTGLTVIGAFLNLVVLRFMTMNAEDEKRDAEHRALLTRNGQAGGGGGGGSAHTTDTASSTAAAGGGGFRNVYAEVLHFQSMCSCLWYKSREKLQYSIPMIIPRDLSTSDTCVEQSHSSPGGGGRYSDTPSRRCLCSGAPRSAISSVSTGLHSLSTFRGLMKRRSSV
Chain of Caspase-9 (P55211 1-315 limits assumed): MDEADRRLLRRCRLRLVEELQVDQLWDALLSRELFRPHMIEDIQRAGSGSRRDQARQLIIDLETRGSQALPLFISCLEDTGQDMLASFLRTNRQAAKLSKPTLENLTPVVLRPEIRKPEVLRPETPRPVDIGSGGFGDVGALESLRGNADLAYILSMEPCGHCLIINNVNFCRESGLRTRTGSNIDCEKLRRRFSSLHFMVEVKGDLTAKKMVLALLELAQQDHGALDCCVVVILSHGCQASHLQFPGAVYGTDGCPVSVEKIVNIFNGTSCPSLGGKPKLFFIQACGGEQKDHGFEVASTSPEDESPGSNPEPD
Chain of Caspase-9 (P55211 331-416 limits assumed): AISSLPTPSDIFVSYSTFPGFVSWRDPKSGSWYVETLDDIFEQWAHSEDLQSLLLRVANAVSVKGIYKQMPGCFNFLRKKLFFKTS
Chain of Caspase-8 (Q14790 217-374 limits assumed): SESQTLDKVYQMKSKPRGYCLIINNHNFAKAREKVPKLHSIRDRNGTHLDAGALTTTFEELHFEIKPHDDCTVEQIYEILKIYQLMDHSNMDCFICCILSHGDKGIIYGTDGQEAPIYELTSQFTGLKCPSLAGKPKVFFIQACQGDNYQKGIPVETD
Chain of Caspase-8 (Q14790 385-479 limits assumed): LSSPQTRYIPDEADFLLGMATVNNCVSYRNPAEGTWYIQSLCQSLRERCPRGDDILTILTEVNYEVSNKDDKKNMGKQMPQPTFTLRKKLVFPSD

Structure (SMILES): O=C(Nc1nc2ccccc2[nH]1)Nc1ccccc1F
- IC50 (Caspase-3): 18.5 µM (active)
- IC50 [1]: 7.28 µM (active)
- IC50 [2]: 10.6 µM (active)
- IC50 [3]: 14.5 µM (active)
- IC50 [4]: > 67.5 µM (inactive)
- EC50 [5]: > 67.5 µM (inactive)
- EC50 [6]: > 67.5 µM (inactive)
- EC50 (cells): > 67.5 µM (inactive)

Structure (SMILES): COc1cc(NC(=O)COC(=O)c2ccc([N+](=O)[O-])s2)cc(OC)c1OC
- IC50 (Caspase-3): 8.45 µM (active)
- IC50 [1]: 5.51 µM (active)
- IC50 [2]: 3.82 µM (active)
- IC50 [3]: 3.88 µM (active)
- EC50 [7]: 63.6 µM (inactive)
- AC50 (Caspase-6): 2.44 µM (active)
- AC50 (Caspase-9): 21.5 µM (active)
- IC50 [8]: 48.3 µM (inactive)
- AC50 (Caspase-8): 20.4 µM (active)

Structure (SMILES): COC(=O)Cc1cc(O)n(-c2nc3ccccc3[nH]2)n1
- IC50 (Nonstructural protein 1): 12.5 µM (active)
- AC50 [9]: 30.4 µM (active)

Structure (SMILES): COc1ccc(NC(=O)Nc2ccc3c(c2)C(=O)N([C@H](C)CO)C[C@H](C)[C@H](CN(C)C(=O)Cc2ccccc2)OCCCC[C@H](C)O3)cc1
- AC50 (HEK293): 25.4 µM (active)
- AC50 [10]: 25.4 µM (active)

Structure (SMILES): O=C1C(=O)N(CCOc2ccccc2)c2ccc(OC(F)(F)F)cc21
- EC50 [11]: 0.466 µM
- EC50 [12]: 51.6 µM (active)
- EC50 [13]: 0.55 µM

Structure (SMILES): CCOc1ccccc1NC(=O)c1cccc(NC(=O)c2cccc(C(F)(F)F)c2)c1
- IC50 [14]: 1.38 µM (active)
- IC50 [15]: 0.232 µM (active)

Structure (SMILES): COc1c[nH]c(C(=O)Nc2ccc(C(C)C)cc2)cc1=O
- IC50 [16]: > 100 µM (inactive)
- IC50 [17]: > 100 µM (inactive)

Structure (SMILES): O=C(NCCN1CCC2(CC1)C(=O)NCN2Cc1ccccn1)c1ccc2ccccc2c1
- IC50 (Phospholipase D2): 0.08 µM (active)
- IC50 (Phospholipase D1): 2.63 µM (active)
